Results reported in patent US20240209001A1, “HETEROCYCLIC DERIVATIVES AS JANUS KINASE INHIBITORS” (CHIESI FARMACEUTICI S.P. A., priority 2021, published 2024).

How the values were obtained:
JAK 1 = JAK 1 (Homo sapiens (Human), UniProt P23458); assay: Biochemical potency on JAK1, TR-FRET LANCE Ultra kinase assay (compounds 1-92); conditions: ATP at Km, read-out: JAK1 inhibitory activity (pIC50 class) (converted)
Description: (§1) Biochemical Potency on JAK1, JAK2, JAK3 and Tyk2 Assay Principle The objective of this study was to assess the capability of compounds to inhibit all 4 JAK isoforms activity in a cell-free environment. Assay for JAK 1, JAK 2, JAK 3 and TYK2 were performed by Time-resolved fluorescence resonance energy transfer (TR-FRET) technology. It consists in the interaction of two labelled binding partners detected by the energy transfer from an excited donor to an acceptor dye and measurement of light emission by the acceptor dye. LANCE Ultra kinase assay was used. In presence of JAK 1, JAK 2, JAK 3 and TYK2 kinases and ATP (corresponding to Km), the ULight peptide substrate (LANCE Ulight-JAK-1 ([…]) Peptide, Perkin Elmer, TRF0121) is phosphorylated. It is then captured by Eu-anti-phospho-substrate antibody (LANCE Eu-W1024 Anti-phosphotyrosine (PT66), Perkin Elmer, AD0069), which bring the Eu-chelate donor and ULight acceptor dyes into close proximity. Upon excitation at 320 nm, the Eu-chelate transfers its energy to the ULight dye, resulting in a fluorescent light emission at 665 nm. Compound Testing Serial dilutions of compounds in pure DMSO are prepared from 10 mM DMSO stock solutions. Compounds were tested in 384-well plate for 11 consecutive 5-fold dilutions starting from 20 μM highest concentration (20 μM-[…]). 200 nL of compound were transferred from mother plate to test plate by using Mosquito (TTP labtech). Assay was performed in 384-well Perkin Elmer test plate in 20 μL assay volume (kinase reaction) and 40 μL total volume (stopping reagent and antibody detection reagents). In 10 μL of substrate solution (peptide+ATP) 30/50/20/10 nM of peptide and 20/0.7/0.2/12 μM of ATP were added for JAK 1, JAK 2, JAK 3 and TYK2 respectively. 10 μL of enzyme solution was added to kinase reaction at these concentrations: 0.15/0.083/0.025/0.144 ng/μL of JAK 1, JAK 2, JAK 3 and TYK2 respectively. After shaking and 1.5 h of incubation at r.t., 20 μL of Stop (10 μL EDTA) and Detection mixture (10 μL Europium-anti-phospho antibody, final: 0.5 nM) were added. Reading was performed after 1 h of incubation on a EnVision 2104 reader (Perkin Elmer). Calculation of IC50 data, curves and QC analysis was performed by using Excel tool and GraphPadPrism software, v9. Briefly, individual concentration-effect curves are generated by plotting the logarithm of the tested concentration of tested compounds (X) vs. corresponding percent inhibition values (Y) using least squares (ordinary) fit. Best fit IC50 values are calculated using Log(inhibitor) vs. normalized response-Variable slope equation, where Y=100/(1+10^((Log IC50-X)*HillSlope)). QC criteria parameters (Z', S:B, R2, HillSlope) were checked for every IC50 curve. Calculation of IC50 data, curves and QC analysis were made using Excel tools and GraphPadPrism software. QC criteria parameters: Z'≥0.5, Hill Slope range 0.5 to 5, S:B>2.

JAK 2 = JAK 2 (Homo sapiens (Human), UniProt O60674); assay: Biochemical potency on JAK2, TR-FRET LANCE Ultra kinase assay (compounds 1-92); conditions: ATP at Km, read-out: JAK2 inhibitory activity (pIC50 class) (converted)
Description: as §1

JAK 3 = JAK 3 (Homo sapiens (Human), UniProt P52333); assay: Biochemical potency on JAK3, TR-FRET LANCE Ultra kinase assay (compounds 1-92); conditions: ATP at Km, read-out: JAK3 inhibitory activity (pIC50 class) (converted)
Description: as §1

TYK2 = TYK2 (Homo sapiens (Human), UniProt P29597); assay: Biochemical potency on Tyk2, TR-FRET LANCE Ultra kinase assay (compounds 1-92); conditions: ATP at Km, read-out: Tyk2 inhibitory activity (pIC50 class) (converted)
Description: as §1

Chain of TYK2 (P29597 whole entry): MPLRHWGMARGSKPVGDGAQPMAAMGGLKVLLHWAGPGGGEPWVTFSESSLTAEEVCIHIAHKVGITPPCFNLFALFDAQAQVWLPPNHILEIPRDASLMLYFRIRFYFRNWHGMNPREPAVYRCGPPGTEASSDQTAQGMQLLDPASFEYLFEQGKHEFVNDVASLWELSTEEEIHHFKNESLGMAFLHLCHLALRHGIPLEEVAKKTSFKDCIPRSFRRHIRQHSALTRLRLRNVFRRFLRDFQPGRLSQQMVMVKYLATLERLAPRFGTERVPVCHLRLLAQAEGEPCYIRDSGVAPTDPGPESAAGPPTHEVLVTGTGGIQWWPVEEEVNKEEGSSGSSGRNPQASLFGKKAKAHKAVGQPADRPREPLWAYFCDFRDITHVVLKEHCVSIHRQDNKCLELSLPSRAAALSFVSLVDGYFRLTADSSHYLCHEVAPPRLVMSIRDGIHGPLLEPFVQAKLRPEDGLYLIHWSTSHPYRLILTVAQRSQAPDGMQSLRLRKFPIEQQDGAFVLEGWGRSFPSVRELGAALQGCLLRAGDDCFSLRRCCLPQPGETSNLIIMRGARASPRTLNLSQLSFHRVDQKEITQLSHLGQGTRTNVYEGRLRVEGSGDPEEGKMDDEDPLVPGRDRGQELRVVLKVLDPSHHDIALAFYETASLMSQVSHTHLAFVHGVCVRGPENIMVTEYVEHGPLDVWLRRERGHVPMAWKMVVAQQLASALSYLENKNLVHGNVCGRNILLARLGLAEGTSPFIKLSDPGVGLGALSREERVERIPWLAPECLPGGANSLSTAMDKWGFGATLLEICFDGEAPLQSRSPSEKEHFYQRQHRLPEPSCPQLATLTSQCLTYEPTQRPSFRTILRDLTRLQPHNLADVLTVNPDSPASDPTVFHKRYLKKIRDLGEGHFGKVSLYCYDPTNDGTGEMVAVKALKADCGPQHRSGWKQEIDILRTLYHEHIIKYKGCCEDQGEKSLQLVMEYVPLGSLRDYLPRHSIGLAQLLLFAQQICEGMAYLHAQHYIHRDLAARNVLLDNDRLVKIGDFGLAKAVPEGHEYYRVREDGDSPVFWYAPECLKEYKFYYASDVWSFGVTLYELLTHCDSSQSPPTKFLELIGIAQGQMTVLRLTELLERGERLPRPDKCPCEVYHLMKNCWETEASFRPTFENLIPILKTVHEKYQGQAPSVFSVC
Chain of JAK 1 (P23458 whole entry, canonical isoform): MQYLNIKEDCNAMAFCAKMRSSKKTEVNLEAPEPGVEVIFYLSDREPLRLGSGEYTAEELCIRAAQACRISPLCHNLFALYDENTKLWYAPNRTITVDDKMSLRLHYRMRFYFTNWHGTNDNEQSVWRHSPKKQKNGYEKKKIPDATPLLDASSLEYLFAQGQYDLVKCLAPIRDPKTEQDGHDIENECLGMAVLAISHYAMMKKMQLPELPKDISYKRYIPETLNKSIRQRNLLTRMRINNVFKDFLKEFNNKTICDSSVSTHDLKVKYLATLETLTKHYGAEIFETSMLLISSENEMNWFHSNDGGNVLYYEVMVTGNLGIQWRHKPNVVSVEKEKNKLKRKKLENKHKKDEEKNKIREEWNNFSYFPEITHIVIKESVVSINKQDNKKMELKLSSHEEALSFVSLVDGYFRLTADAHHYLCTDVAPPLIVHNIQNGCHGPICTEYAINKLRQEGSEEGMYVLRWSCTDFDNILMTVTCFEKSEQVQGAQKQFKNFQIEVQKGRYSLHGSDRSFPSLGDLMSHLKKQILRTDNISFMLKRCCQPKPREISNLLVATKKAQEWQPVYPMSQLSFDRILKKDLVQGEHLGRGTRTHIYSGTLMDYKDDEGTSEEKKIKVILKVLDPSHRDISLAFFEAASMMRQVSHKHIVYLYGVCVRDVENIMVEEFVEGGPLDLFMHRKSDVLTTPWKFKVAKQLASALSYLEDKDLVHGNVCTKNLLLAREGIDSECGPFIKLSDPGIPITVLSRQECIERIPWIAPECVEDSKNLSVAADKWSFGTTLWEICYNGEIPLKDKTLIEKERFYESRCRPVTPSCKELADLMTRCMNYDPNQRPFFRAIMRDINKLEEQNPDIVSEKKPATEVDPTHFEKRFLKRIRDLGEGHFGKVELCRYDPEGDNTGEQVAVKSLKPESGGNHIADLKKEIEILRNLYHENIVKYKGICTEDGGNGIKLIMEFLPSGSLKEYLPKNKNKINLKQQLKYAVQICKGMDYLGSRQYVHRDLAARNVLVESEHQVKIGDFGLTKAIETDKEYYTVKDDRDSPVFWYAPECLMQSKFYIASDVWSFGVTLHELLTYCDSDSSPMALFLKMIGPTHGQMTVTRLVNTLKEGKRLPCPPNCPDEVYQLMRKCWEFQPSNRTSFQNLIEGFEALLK
Chain of JAK 2 (O60674 whole entry): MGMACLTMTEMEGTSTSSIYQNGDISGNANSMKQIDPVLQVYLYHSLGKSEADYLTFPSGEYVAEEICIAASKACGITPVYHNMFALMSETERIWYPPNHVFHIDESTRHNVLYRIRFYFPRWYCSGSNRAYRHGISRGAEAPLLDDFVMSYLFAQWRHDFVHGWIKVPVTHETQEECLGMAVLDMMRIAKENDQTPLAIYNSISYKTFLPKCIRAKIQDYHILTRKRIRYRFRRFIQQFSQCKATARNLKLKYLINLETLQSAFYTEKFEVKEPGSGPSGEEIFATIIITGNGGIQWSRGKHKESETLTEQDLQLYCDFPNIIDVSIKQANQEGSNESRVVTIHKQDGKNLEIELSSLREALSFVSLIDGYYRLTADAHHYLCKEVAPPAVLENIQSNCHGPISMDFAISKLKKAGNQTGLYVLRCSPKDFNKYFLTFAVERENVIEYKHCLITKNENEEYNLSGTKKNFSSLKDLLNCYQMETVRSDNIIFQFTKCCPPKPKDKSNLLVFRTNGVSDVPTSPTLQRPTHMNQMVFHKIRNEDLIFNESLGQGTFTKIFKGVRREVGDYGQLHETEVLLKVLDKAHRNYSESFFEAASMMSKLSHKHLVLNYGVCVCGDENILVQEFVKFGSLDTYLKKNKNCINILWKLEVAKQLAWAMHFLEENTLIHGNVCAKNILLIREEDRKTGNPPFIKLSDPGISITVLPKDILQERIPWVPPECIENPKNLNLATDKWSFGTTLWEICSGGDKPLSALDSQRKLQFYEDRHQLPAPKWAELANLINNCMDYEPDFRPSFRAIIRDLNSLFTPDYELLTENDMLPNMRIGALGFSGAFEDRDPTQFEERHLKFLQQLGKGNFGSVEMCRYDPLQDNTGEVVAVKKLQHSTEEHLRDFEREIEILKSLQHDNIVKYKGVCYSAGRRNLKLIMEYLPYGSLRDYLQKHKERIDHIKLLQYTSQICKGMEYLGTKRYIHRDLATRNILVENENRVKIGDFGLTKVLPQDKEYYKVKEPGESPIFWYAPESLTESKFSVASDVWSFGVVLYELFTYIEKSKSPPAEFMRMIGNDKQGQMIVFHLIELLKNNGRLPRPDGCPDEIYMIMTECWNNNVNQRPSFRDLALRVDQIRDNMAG
Chain of JAK 3 (P52333 whole entry): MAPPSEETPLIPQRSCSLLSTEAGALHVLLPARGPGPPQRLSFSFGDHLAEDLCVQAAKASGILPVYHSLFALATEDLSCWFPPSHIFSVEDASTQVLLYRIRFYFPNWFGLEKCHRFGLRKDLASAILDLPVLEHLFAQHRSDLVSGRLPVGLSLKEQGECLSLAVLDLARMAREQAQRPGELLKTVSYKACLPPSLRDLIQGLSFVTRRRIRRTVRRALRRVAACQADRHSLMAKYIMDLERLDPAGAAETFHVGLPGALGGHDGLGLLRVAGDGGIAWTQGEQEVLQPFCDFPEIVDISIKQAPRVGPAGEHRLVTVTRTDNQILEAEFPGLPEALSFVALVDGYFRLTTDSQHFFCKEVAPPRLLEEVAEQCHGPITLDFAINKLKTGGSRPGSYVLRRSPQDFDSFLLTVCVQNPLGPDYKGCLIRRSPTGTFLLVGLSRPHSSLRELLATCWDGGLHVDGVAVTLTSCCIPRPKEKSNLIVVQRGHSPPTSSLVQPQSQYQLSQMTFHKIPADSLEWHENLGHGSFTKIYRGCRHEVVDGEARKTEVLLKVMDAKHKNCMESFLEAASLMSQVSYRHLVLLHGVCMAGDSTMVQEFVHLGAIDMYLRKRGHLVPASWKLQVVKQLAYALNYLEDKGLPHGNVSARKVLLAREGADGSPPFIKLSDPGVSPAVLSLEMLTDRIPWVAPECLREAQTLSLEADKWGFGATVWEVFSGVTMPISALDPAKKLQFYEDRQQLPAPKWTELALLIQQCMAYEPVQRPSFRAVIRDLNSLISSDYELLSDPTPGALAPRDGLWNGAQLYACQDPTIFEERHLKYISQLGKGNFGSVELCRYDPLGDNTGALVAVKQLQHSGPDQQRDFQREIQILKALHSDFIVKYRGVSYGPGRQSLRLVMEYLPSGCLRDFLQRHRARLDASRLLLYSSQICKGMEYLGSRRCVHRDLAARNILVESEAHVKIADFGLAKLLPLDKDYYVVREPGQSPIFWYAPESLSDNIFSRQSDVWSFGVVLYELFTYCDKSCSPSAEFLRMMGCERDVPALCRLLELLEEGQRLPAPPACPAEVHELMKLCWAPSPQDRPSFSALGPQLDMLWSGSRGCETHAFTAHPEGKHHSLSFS

| Structure (SMILES) | IC50 (JAK 1) | IC50 (JAK 2) | IC50 (JAK 3) | IC50 (TYK2) |
| --- | --- | --- | --- | --- |
| COc1cc(NS(C)(=O)=O)ccc1-n1nc(NCC2CN(C)CCO2)c2cnc(-c3cnn4cccnc34)cc21 (racemic) [Example 28, N-(3-methoxy-4-(3-(((4-methylmorpholin-2-yl)methyl)amino)-6-(pyrazolo[1,5-a]pyrimidin-3-yl)-1H-pyrazolo[4,3-c]pyridin-1-yl)phenyl)methanesulfonamide] | ≤ 5.01 nM | ≤ 5.01 nM | ≤ 5.01 nM | 5.01 to 50.1 nM |
| COc1cc(NS(C)(=O)=O)ccc1-n1nc(NC(=O)C2CCN(C)C2)c2cnc(-c3cnn4cccnc34)cc21 (racemic) [Example 42, N-(1-(2-methoxy-4-(methylsulfonamido)phenyl)-6-(pyrazolo[1,5-a]pyrimidin-3-yl)-1H-pyrazolo[4,3-c]pyridin-3-yl)-1-methylpyrrolidine-3-carboxamide] | 5.01 to 50.1 nM | 5.01 to 50.1 nM | 5.01 to 50.1 nM | 5.01 to 50.1 nM |
| COc1cc(NS(C)(=O)=O)ccc1-n1nc(C)c2cnc(-c3cnn4cccnc34)cc21 [Example 1, N-(3-methoxy-4-(3-methyl-6-(pyrazolo[1,5-a]pyrimidin-3-yl)-1H-pyrazolo[4,3-c]pyridin-1-yl)phenyl)methanesulfonamide] | ≤ 5.01 nM | ≤ 5.01 nM | ≤ 5.01 nM | 5.01 to 50.1 nM |
| COc1cc(NS(=O)(=O)CC2CCCO2)ccc1-n1nc(C)c2cnc(-c3cnn4cccnc34)cc21 (stereo not shown) [Example 2, N-(3-methoxy-4-(3-methyl-6-(pyrazolo[1,5-a]pyrimidin-3-yl)-1H-pyrazolo[4,3-c]pyridin-1-yl)phenyl)-1-(tetrahydrofuran-2-yl)methanesulfonamide] | 5.01 to 50.1 nM | ≤ 5.01 nM | 5.01 to 50.1 nM | 5.01 to 50.1 nM |
| COc1cc(NS(=O)(=O)C2CCOCC2)ccc1-n1nc(C)c2cnc(-c3cnn4cccnc34)cc21 [Example 3, N-(3-methoxy-4-(3-methyl-6-(pyrazolo[1,5-a]pyrimidin-3-yl)-1H-pyrazolo[4,3-c]pyridin-1-yl)phenyl)tetrahydro-2H-pyran-4-sulfonamide] | 5.01 to 50.1 nM | ≤ 5.01 nM | 5.01 to 50.1 nM | > 50.1 nM |
| CCCS(=O)(=O)Nc1ccc(-n2nc(C)c3cnc(-c4cnn5cccnc45)cc32)c(OC)c1 [Example 4, N-(3-methoxy-4-(3-methyl-6-(pyrazolo[1,5-a]pyrimidin-3-yl)-1H-pyrazolo[4,3-c]pyridin-1-yl)phenyl)propane-1-sulfonamide] | ≤ 5.01 nM | ≤ 5.01 nM | ≤ 5.01 nM | 5.01 to 50.1 nM |
| COc1cc(NS(=O)(=O)CC2CC2)ccc1-n1nc(C)c2cnc(-c3cnn4cccnc34)cc21 [Example 5, 1-cyclopropyl-N-(3-methoxy-4-(3-methyl-6-(pyrazolo[1,5-a]pyrimidin-3-yl)-1H-pyrazolo[4,3-c]pyridin-1-yl)phenyl)methanesulfonamide] | ≤ 5.01 nM | ≤ 5.01 nM | ≤ 5.01 nM | 5.01 to 50.1 nM |
| COc1cc(NS(=O)(=O)C2CC2)ccc1-n1nc(C)c2cnc(-c3cnn4cccnc34)cc21 [Example 6, N-(3-methoxy-4-(3-methyl-6-(pyrazolo[1,5-a]pyrimidin-3-yl)-1H-pyrazolo[4,3-c]pyridin-1-yl)phenyl)cyclopropanesulfonamide] | ≤ 5.01 nM | ≤ 5.01 nM | ≤ 5.01 nM | 5.01 to 50.1 nM |
| Cc1nn(-c2ccc(NS(C)(=O)=O)cc2OC(F)F)c2cc(-c3cnn4cccnc34)ncc12 [Example 7, N-(3-(difluoromethoxy)-4-(3-methyl-6-(pyrazolo[1,5-a]pyrimidin-3-yl)-1H-pyrazolo[4,3-c]pyridin-1-yl)phenyl)methanesulfonamide] | ≤ 5.01 nM | ≤ 5.01 nM | ≤ 5.01 nM | 5.01 to 50.1 nM |
| COc1cc(NS(=O)(=O)C2COC2)ccc1-n1nc(C)c2cnc(-c3cnn4cccnc34)cc21 [Example 8, N-(3-methoxy-4-(3-methyl-6-(pyrazolo[1,5-a]pyrimidin-3-yl)-1H-pyrazolo[4,3-c]pyridin-1-yl)phenyl)oxetane-3-sulfonamide] | ≤ 5.01 nM | ≤ 5.01 nM | ≤ 5.01 nM | 5.01 to 50.1 nM |
| COc1cc(NS(=O)(=O)C2CCOC2)ccc1-n1nc(C)c2cnc(-c3cnn4cccnc34)cc21 (stereo not shown) [Example 9, N-(3-methoxy-4-(3-methyl-6-(pyrazolo[1,5-a]pyrimidin-3-yl)-1H-pyrazolo[4,3-c]pyridin-1-yl)phenyl)tetrahydrofuran-3-sulfonamide] | 5.01 to 50.1 nM | ≤ 5.01 nM | 5.01 to 50.1 nM | 5.01 to 50.1 nM |
| COc1cc(NS(=O)(=O)c2cnn(C)c2)ccc1-n1nc(C)c2cnc(-c3cnn4cccnc34)cc21 [Example 10, N-(3-methoxy-4-(3-methyl-6-(pyrazolo[1,5-a]pyrimidin-3-yl)-1H-pyrazolo[4,3-c]pyridin-1-yl)phenyl)-1-methyl-1H-pyrazole-4-sulfonamide] | ≤ 5.01 nM | ≤ 5.01 nM | 5.01 to 50.1 nM | 5.01 to 50.1 nM |
| COc1cc(NS(C)(=O)=O)cnc1-n1nc(C)c2cnc(-c3cnn4cccnc34)cc21 [Example 11, N-(5-methoxy-6-(3-methyl-6-(pyrazolo[1,5-a]pyrimidin-3-yl)-1H-pyrazolo[4,3-c]pyridin-1-yl)pyridin-3-yl)methanesulfonamide] | ≤ 5.01 nM | ≤ 5.01 nM | ≤ 5.01 nM | > 50.1 nM |
| COc1cc(NS(C)(=O)=O)c(F)cc1-n1nc(C)c2cnc(-c3cnn4cccnc34)cc21 [Example 12, N-(2-fluoro-5-methoxy-4-(3-methyl-6-(pyrazolo[1,5-a]pyrimidin-3-yl)-1H-pyrazolo[4,3-c]pyridin-1-yl)phenyl)methanesulfonamide] | 5.01 to 50.1 nM | 5.01 to 50.1 nM | 5.01 to 50.1 nM | > 50.1 nM |
| COc1cc(NS(=O)(=O)CCC(N)=O)ccc1-n1nc(C)c2cnc(-c3cnn4cccnc34)cc21 [Example 13, 3-(N-(3-methoxy-4-(3-methyl-6-(pyrazolo[1,5-a]pyrimidin-3-yl)-1H-pyrazolo[4,3-c]pyridin-1-yl)phenyl)sulfamoyl)propanamide] | ≤ 5.01 nM | ≤ 5.01 nM | ≤ 5.01 nM | 5.01 to 50.1 nM |
| COc1cc(NS(=O)(=O)CC(N)=O)ccc1-n1nc(C)c2cnc(-c3cnn4cccnc34)cc21 [Example 14, 2-(N-(3-methoxy-4-(3-methyl-6-(pyrazolo[1,5-a]pyrimidin-3-yl)-1H-pyrazolo[4,3-c]pyridin-1-yl)phenyl)sulfamoyl)acetamide] | ≤ 5.01 nM | ≤ 5.01 nM | ≤ 5.01 nM | 5.01 to 50.1 nM |
| COc1cc(C#N)ccc1-n1nc(C)c2cnc(-c3cnn4cccnc34)cc21 [Example 15, 3-methoxy-4-(3-methyl-6-(pyrazolo[1,5-a]pyrimidin-3-yl)-1H-pyrazolo[4,3-c]pyridin-1-yl)benzonitrile] | 5.01 to 50.1 nM | 5.01 to 50.1 nM | 5.01 to 50.1 nM | > 50.1 nM |
| CNc1cc(OC)c(-n2nc(C)c3cnc(-c4cnn5cccnc45)cc32)cn1 [Example 16, 4-methoxy-N-methyl-5-(3-methyl-6-(pyrazolo[1,5-a]pyrimidin-3-yl)-1H-pyrazolo[4,3-c]pyridin-1-yl)pyridin-2-amine] | 5.01 to 50.1 nM | 5.01 to 50.1 nM | 5.01 to 50.1 nM | > 50.1 nM |
| COc1cc(N)ccc1-n1nc(C)c2cnc(-c3cnn4cccnc34)cc21 [Example 17, 3-methoxy-4-(3-methyl-6-(pyrazolo[1,5-a]pyrimidin-3-yl)-1H-pyrazolo[4,3-c]pyridin-1-yl)aniline] | 5.01 to 50.1 nM | 5.01 to 50.1 nM | 5.01 to 50.1 nM | > 50.1 nM |
